Measurements taken from PubChem BioAssay (NCI).
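Compound exposure: 48 hours, 5 concentrations, 96-well plates. TGI: total growth inhibition.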

Key:
Experiment in all cases: NCI-60 cell line screen, 48 h
786-0 renal = tested on: 786-0 renal
A498 renal = tested on: A498 renal
A549 NSCLC = tested on: A549 NSCLC
ACHN renal = tested on: ACHN renal
CAKI-1 renal = tested on: CAKI-1 renal
CCRF-CEM leukemia = tested on: CCRF-CEM leukemia
COLO 205 colon = tested on: COLO 205 colon
DU-145 prostate = tested on: DU-145 prostate
EKVX NSCLC = tested on: EKVX NSCLC
HCC-2998 colon = tested on: HCC-2998 colon
HCT-116 colon = tested on: HCT-116 colon
HCT-15 colon = tested on: HCT-15 colon
HL-60(TB) leukemia = tested on: HL-60(TB) leukemia
HOP-62 NSCLC = tested on: HOP-62 NSCLC
HOP-92 NSCLC = tested on: HOP-92 NSCLC
HS 578T breast = tested on: HS 578T breast
HT29 colon = tested on: HT29 colon
IGROV1 ovarian = tested on: IGROV1 ovarian
K-562 leukemia = tested on: K-562 leukemia
KM12 colon = tested on: KM12 colon
LOX IMVI melanoma = tested on: LOX IMVI melanoma
M14 melanoma = tested on: M14 melanoma
MALME-3M melanoma = tested on: MALME-3M melanoma
MCF7 breast = tested on: MCF7 breast
MDA-MB-231 breast = tested on: MDA-MB-231 breast
MDA-MB-435 = tested on: MDA-MB-435
MDA-N = tested on: MDA-N
MOLT-4 leukemia = tested on: MOLT-4 leukemia
NCI-H226 lung = tested on: NCI-H226 lung
NCI-H23 lung = tested on: NCI-H23 lung
NCI-H460 lung = tested on: NCI-H460 lung
NCI-H522 lung = tested on: NCI-H522 lung
NCI/ADR-RES ovarian = tested on: NCI/ADR-RES ovarian
OVCAR-3 ovarian = tested on: OVCAR-3 ovarian
OVCAR-4 ovarian = tested on: OVCAR-4 ovarian
OVCAR-5 ovarian = tested on: OVCAR-5 ovarian
OVCAR-8 ovarian = tested on: OVCAR-8 ovarian
PC-3 prostate = tested on: PC-3 prostate
RPMI-8226 leukemia = tested on: RPMI-8226 leukemia
RXF 393 renal = tested on: RXF 393 renal
SF-268 CNS = tested on: SF-268 CNS
SF-295 CNS = tested on: SF-295 CNS
SF-539 CNS = tested on: SF-539 CNS
SK-MEL-2 melanoma = tested on: SK-MEL-2 melanoma
SK-MEL-28 melanoma = tested on: SK-MEL-28 melanoma
SK-MEL-5 melanoma = tested on: SK-MEL-5 melanoma
SK-OV-3 ovarian = tested on: SK-OV-3 ovarian
SN12C renal = tested on: SN12C renal
SNB-19 CNS = tested on: SNB-19 CNS
SNB-75 CNS = tested on: SNB-75 CNS
SR leukemia = tested on: SR leukemia
SW-620 colon = tested on: SW-620 colon
T-47D breast = tested on: T-47D breast
TK-10 renal = tested on: TK-10 renal
U251 CNS = tested on: U251 CNS
UACC-257 melanoma = tested on: UACC-257 melanoma
UACC-62 melanoma = tested on: UACC-62 melanoma
UO-31 renal = tested on: UO-31 renal

**Q.** Which TGI (786-0 renal) does the source give for `CCn1c(=N)sc2nc3ccccc3n2c1=O` here?
**A.** The TGI was greater than 100 µM.

**Q.** And the TGI (A498 renal)?
**A.** The TGI was greater than 100 µM.

**Q.** What about the TGI (A549 NSCLC) of the same compound?
**A.** Its TGI is greater than 100 µM.

**Q.** And the TGI (ACHN renal)?
**A.** Its TGI is greater than 100 µM.

**Q.** What about the TGI (CAKI-1 renal) of the same compound?
**A.** Its TGI is greater than 100 µM.

**Q.** And the TGI (CCRF-CEM leukemia)?
**A.** The TGI was greater than 100 µM.

**Q.** What about the TGI (COLO 205 colon) of the same compound?
**A.** Its TGI is greater than 100 µM.

**Q.** And the TGI (DU-145 prostate)?
**A.** The TGI was greater than 100 µM.

**Q.** What about the TGI (EKVX NSCLC) of the same compound?
**A.** The TGI was greater than 100 µM.

**Q.** What about the TGI (HCC-2998 colon) of the same compound?
**A.** Its TGI is greater than 100 µM.

**Q.** And the TGI (HCT-116 colon)?
**A.** Its TGI is greater than 100 µM.

**Q.** What about the TGI (HCT-15 colon) of the same compound?
**A.** The TGI was greater than 100 µM.

**Q.** What about the TGI (HL-60(TB) leukemia) of the same compound?
**A.** Its TGI is greater than 100 µM.

**Q.** What about the TGI (HOP-62 NSCLC) of the same compound?
**A.** Its TGI is greater than 100 µM.

**Q.** What about the TGI (HOP-92 NSCLC) of the same compound?
**A.** Its TGI is greater than 100 µM.

**Q.** And the TGI (HS 578T breast)?
**A.** The TGI was greater than 100 µM.

**Q.** What about the TGI (HT29 colon) of the same compound?
**A.** The TGI was greater than 100 µM.

**Q.** What about the TGI (IGROV1 ovarian) of the same compound?
**A.** Its TGI is greater than 100 µM.

**Q.** What about the TGI (K-562 leukemia) of the same compound?
**A.** The TGI was greater than 100 µM.

**Q.** And the TGI (KM12 colon)?
**A.** The TGI was greater than 100 µM.

**Q.** What about the TGI (LOX IMVI melanoma) of the same compound?
**A.** Its TGI is greater than 100 µM.

**Q.** What about the TGI (M14 melanoma) of the same compound?
**A.** Its TGI is greater than 100 µM.

**Q.** What about the TGI (MALME-3M melanoma) of the same compound?
**A.** The TGI was greater than 100 µM.

**Q.** And the TGI (MCF7 breast)?
**A.** The TGI was greater than 100 µM.

**Q.** What about the TGI (MDA-MB-231 breast) of the same compound?
**A.** Its TGI is greater than 100 µM.

**Q.** What about the TGI (MDA-MB-435) of the same compound?
**A.** The TGI was greater than 100 µM.

**Q.** And the TGI (MDA-N)?
**A.** The TGI was greater than 100 µM.

**Q.** What about the TGI (MOLT-4 leukemia) of the same compound?
**A.** Its TGI is greater than 100 µM.

**Q.** What about the TGI (NCI-H226 lung) of the same compound?
**A.** Its TGI is greater than 100 µM.

**Q.** And the TGI (NCI-H23 lung)?
**A.** The TGI was greater than 100 µM.

**Q.** And the TGI (NCI-H460 lung)?
**A.** Its TGI is greater than 100 µM.

**Q.** And the TGI (NCI-H522 lung)?
**A.** Its TGI is greater than 100 µM.

**Q.** And the TGI (NCI/ADR-RES ovarian)?
**A.** Its TGI is greater than 100 µM.

**Q.** What about the TGI (OVCAR-3 ovarian) of the same compound?
**A.** The TGI was greater than 100 µM.

**Q.** What about the TGI (OVCAR-4 ovarian) of the same compound?
**A.** Its TGI is greater than 100 µM.

**Q.** And the TGI (OVCAR-5 ovarian)?
**A.** Its TGI is greater than 100 µM.

**Q.** What about the TGI (OVCAR-8 ovarian) of the same compound?
**A.** Its TGI is greater than 100 µM.

**Q.** What about the TGI (PC-3 prostate) of the same compound?
**A.** The TGI was greater than 100 µM.

**Q.** What about the TGI (RPMI-8226 leukemia) of the same compound?
**A.** Its TGI is greater than 100 µM.

**Q.** What about the TGI (RXF 393 renal) of the same compound?
**A.** Its TGI is greater than 100 µM.

**Q.** And the TGI (SF-268 CNS)?
**A.** Its TGI is greater than 100 µM.

**Q.** What about the TGI (SF-295 CNS) of the same compound?
**A.** The TGI was greater than 100 µM.

**Q.** And the TGI (SF-539 CNS)?
**A.** Its TGI is greater than 100 µM.

**Q.** What about the TGI (SK-MEL-2 melanoma) of the same compound?
**A.** The TGI was greater than 100 µM.

**Q.** What about the TGI (SK-MEL-28 melanoma) of the same compound?
**A.** Its TGI is greater than 100 µM.

**Q.** And the TGI (SK-MEL-5 melanoma)?
**A.** Its TGI is greater than 100 µM.

**Q.** And the TGI (SK-OV-3 ovarian)?
**A.** Its TGI is greater than 100 µM.

**Q.** What about the TGI (SN12C renal) of the same compound?
**A.** Its TGI is greater than 100 µM.

**Q.** And the TGI (SNB-19 CNS)?
**A.** Its TGI is greater than 100 µM.

**Q.** And the TGI (SNB-75 CNS)?
**A.** The TGI was greater than 100 µM.

**Q.** And the TGI (SR leukemia)?
**A.** Its TGI is greater than 100 µM.

**Q.** And the TGI (SW-620 colon)?
**A.** Its TGI is greater than 100 µM.

**Q.** And the TGI (T-47D breast)?
**A.** Its TGI is greater than 100 µM.

**Q.** And the TGI (TK-10 renal)?
**A.** Its TGI is greater than 100 µM.

**Q.** And the TGI (U251 CNS)?
**A.** The TGI was greater than 100 µM.

**Q.** And the TGI (UACC-257 melanoma)?
**A.** The TGI was greater than 100 µM.

**Q.** And the TGI (UACC-62 melanoma)?
**A.** The TGI was greater than 100 µM.

**Q.** And the TGI (UO-31 renal)?
**A.** Its TGI is 33.3 µM.

**Q.** Which TGI (ACHN renal) does the source give for `COC[C@H]1C(=O)NCC(=O)N2N=CCC[C@H]2C(=O)N(O)[C@H](C)C(=O)O[C@@H](C(C)C)[C@H](NC(=O)[C@@](C)(O)[C@]2(O)CC[C@@H](CC(C)C)[C@H](C)O2)C(=O)N2NCCC[C@@H]2C(=O)N1O` here?
**A.** Its TGI is 0.147 µM.

**Q.** What about the TGI (COLO 205 colon) of the same compound?
**A.** Its TGI is 0.0319 µM.

**Q.** And the TGI (DU-145 prostate)?
**A.** The TGI was 0.168 µM.

**Q.** What about the TGI (HCC-2998 colon) of the same compound?
**A.** The TGI was 0.0279 µM.

**Q.** And the TGI (HCT-15 colon)?
**A.** Its TGI is 0.253 µM.

**Q.** And the TGI (HOP-62 NSCLC)?
**A.** Its TGI is 0.0322 µM.

**Q.** What about the TGI (HOP-92 NSCLC) of the same compound?
**A.** Its TGI is 0.0334 µM.

**Q.** What about the TGI (HT29 colon) of the same compound?
**A.** The TGI was 0.0307 µM.

**Q.** And the TGI (K-562 leukemia)?
**A.** Its TGI is greater than 100 µM.

**Q.** And the TGI (KM12 colon)?
**A.** Its TGI is 0.0276 µM.

**Q.** And the TGI (LOX IMVI melanoma)?
**A.** The TGI was 0.0316 µM.

**Q.** What about the TGI (M14 melanoma) of the same compound?
**A.** Its TGI is 0.0355 µM.

**Q.** And the TGI (MALME-3M melanoma)?
**A.** The TGI was 0.0307 µM.

**Q.** What about the TGI (MCF7 breast) of the same compound?
**A.** The TGI was 0.0297 µM.

**Q.** What about the TGI (MDA-N) of the same compound?
**A.** The TGI was 0.0323 µM.

**Q.** What about the TGI (NCI-H23 lung) of the same compound?
**A.** Its TGI is 0.0312 µM.

**Q.** And the TGI (OVCAR-3 ovarian)?
**A.** The TGI was 0.0362 µM.

**Q.** And the TGI (OVCAR-5 ovarian)?
**A.** The TGI was 0.0341 µM.

**Q.** What about the TGI (PC-3 prostate) of the same compound?
**A.** The TGI was 0.0318 µM.

**Q.** What about the TGI (RPMI-8226 leukemia) of the same compound?
**A.** Its TGI is greater than 100 µM.

**Q.** What about the TGI (SF-295 CNS) of the same compound?
**A.** Its TGI is 0.0311 µM.

**Q.** What about the TGI (SF-539 CNS) of the same compound?
**A.** The TGI was 0.0297 µM.

**Q.** And the TGI (SK-MEL-2 melanoma)?
**A.** Its TGI is 0.0276 µM.

**Q.** What about the TGI (SK-MEL-28 melanoma) of the same compound?
**A.** The TGI was 0.0315 µM.

**Q.** And the TGI (SNB-75 CNS)?
**A.** Its TGI is less than 0.0159 µM.

**Q.** What about the TGI (SW-620 colon) of the same compound?
**A.** Its TGI is 0.03 µM.

**Q.** And the TGI (TK-10 renal)?
**A.** Its TGI is 0.0322 µM.

**Q.** What about the TGI (U251 CNS) of the same compound?
**A.** The TGI was 0.03 µM.

**Q.** And the TGI (UACC-257 melanoma)?
**A.** Its TGI is 0.0328 µM.

**Q.** And the TGI (UACC-62 melanoma)?
**A.** Its TGI is 0.0322 µM.

**Q.** And the TGI (UO-31 renal)?
**A.** The TGI was 0.341 µM.
